Where two headings read alike, the source gives them in different places.
B1: Eotaxin-2: chemokine (protein, UniProt O00175 27-119, looked up)
C-C motif chemokine 24: VVIPSPCCMFFVSKRIPENRVVSYQLSSRSTCLKAGVIFTTKKGQQFCGDPKQEWVQRYMKNLDAKQKKASPRARAVAVKGPVQRYPGNQTTC
B2: Fractalkine: chemokine (protein, UniProt P78423 25-397, looked up)
Fractalkine: QHHGVTKCNITCSKMTSKIPVALLIHYQQNQASCGKRAIILETRQHRLFCADPKEQWVKDAMQHLDRQAAALTRNGGTFEKQIGEVKPRTTPAAGGMDESVVLEPEATGESSSLEPTPSSQEAQRALGTSPELPTGVTGSSGTRLPPTPKAQDGGPVGTELFRVPPVSTAATWQSSAPHQPGPSLWAEAKTSEAPSTQDPSTQASTASSPAPEENAPSEGQRVWGQGQSPRPENSLEREEMGPVPAHTDAFQDWGPGSMAHVSVVPVSSEGTPSREPVASGSWTPKAEEPIHATMDPQRLGVLITPVPDAQAATRRQAVGLLAFLGLLFCLGVAMFTYQSLQGCPRKMAGEMAEGLRYIPRSCGSNSYVLVPV
B3: Eotaxin-3: chemokine (protein, UniProt Q9Y258 24-94, looked up)
C-C motif chemokine 26: TRGSDISKTCCFQYSHKPLPWTWVRSYEFTSNSCSQRAVIFTTKRGKKVCTHPRKKWVQKYISLLKTPKQL
B4: RANTES: chemokine (protein, UniProt P13501 24-91, looked up)
C-C motif chemokine 5: SPYSSDTTPCCFAYIARPLPRAHIKEYFYTSGKCSNPAVVFVTRKNRQVCANPEKKWVREYINSLEMS
B5: MIP-1 beta: chemokine (protein, UniProt P13236 24-92, looked up)
C-C motif chemokine 4: APMGSDPPTACCFSYTARKLPRNFVVDYYETSSLCSQPAVVFQTKRSKQVCADPSESWVQEYVYDLELN
B6: TARC: chemokine (protein, UniProt Q92583 24-94, looked up)
C-C motif chemokine 17: ARGTNVGRECCLEYFKGAIPLRKLKTWYQTSEDCSRDAIVFVTVQGRAICSDPNNKRVKNAVKYLQSLERS
B7: MDC: chemokine (protein, UniProt O00626 25-93, looked up)
C-C motif chemokine 22: GPYGANMEDSVCCRDYVRYRLPLRVVKHFYWTSDSCPRPGVVLLTFRDKEICADPRVPWVKMILNKLSQ
B8: HCC-1: chemokine (protein, UniProt Q16627 20-93, looked up)
C-C motif chemokine 14: TKTESSSRGPYHPSECCFTYTTYKIPRQRIMDYYETNSQCSKPGIVFITKRGHSVCTNPSDKWVQDYIKDMKEN
B9: SLC: chemokine (protein, UniProt O00585 24-134, looked up)
C-C motif chemokine 21: SDGGAQDCCLKYSQRKIPAKVVRSYRKQEPSLGCSIPAILFLPRKRSQAELCADPKELWVQQLMQHLDKTPSPQKPAQGCRKDRGASKTGKKGKGSKGCKRTERSQTPKGP
B10: HSP32 Rat: heat shock protein; accession P06762/AAH91164 (protein, UniProt P06762 1-289, looked up)
Heme oxygenase 1: MERPQLDSMSQDLSEALKEATKEVHIRAENSEFMRNFQKGQVSREGFKLVMASLYHIYTALEEEIERNKQNPVYAPLYFPEELHRRAALEQDMAFWYGPHWQEAIPYTPATQHYVKRLHEVGGTHPELLVAHAYTRYLGDLSGGQVLKKIAQKAMALPSSGEGLAFFTFPSIDNPTKFKQLYRARMNTLEMTPEVKHRVTEEAKTAFLLNIELFEELQALLTEEHKDQSPSQTEFLRQRPASLVQDTTSAETPRGKSQISTSSSQTPLLRWVLTLSFLLATVAVGIYAM
B11: Leukotactin-1: chemokine (protein, UniProt Q16663 22-113, looked up)
C-C motif chemokine 15: QFTNDAETELMMSKLPLENPVVLNSFHFAADCCTSYISQSIPCSLMKSYFETSSECSKPGVIFLTKKGRQVCAKPSGPGVQDCMKKLKPYSI

Assays:
B-cell = assay: Trans-well migration assay (Example 1), net migratory response; conditions: net observed response
Experimental: Prior to beginning the assay 0.5% Fetal Calf Serum (FCS) in Iscove's Modified Dulbecco's Medium (IMDM) is prepared and stored on ice (Assay Medium). Migratory cells at a concentration of 2×10^7 cells/ml are suspended in Assay Medium. T-cells isolated from donor blood or buffy coats are allowed to rest overnight in Assay Medium at 37° C. in 5% CO2. Neutrophils, monocytes and B cells are utilized as soon as they are purified from donor blood or other source of human origin. Four serial (10×) dilutions of the ligand are then prepared in Assay Medium (normally 10 μg/ml to 0.01 μg/ml).
Plates are removed from the packaging, leaving the membrane behind and intact. The membrane is set aside. Into each well is pipetted 31 μl of solution. For media controls and fugetaxis (chemorepellent) samples, Assay Medium is used. For chemoattraction samples, the appropriate dilution of agent in assay medium is used.
Using a sterile needle, all small bubbles present in each well are popped and the membrane is carefully placed onto the plate, starting at one side and slowly lowering the other edge onto the plate.
Then 29 μl is pipetted into each circle imprinted on the polycarbonate or polyester membrane. For media controls and chemoattraction samples, Assay Medium is used. For fugetaxis (chemorepellent) samples, the appropriate dilution of ligand in assay medium is used.
To each 29 uL aliquot above is added 2 μl of cells (40,000 cells). It is important to ensure that before beginning the cells are well suspended and that they are mixed. This mixing can be accomplished by agitating the tube between each addition.
The plate is then covered with the supplied lid and incubated 1-3 hours in a humidified incubator at 37° C. in 5% CO2. Following the incubation period, the liquid from the top of the plate is removed with a tissue or similar blotting material (e.g. a Kimwipe). The membrane is carefully removed from the top of the plate and discarded. […] Using a multichannel pipettor, each well of the microplate is rinsed with 25 μl Phosphate Buffered Saline (Mediatech #21-040-CV) and transferred to the same wells in the white microplate. Using a multichannel pipettor, 50 μl CellTiter-Glo Luminescent Cell Viability Assay (Promega #G7572) is added to each well and mixed.
The plate is read using the Perkin Elmer Victor^3V plate reader using the Large Aperture Luminescence setting at 8 mm height above the plate with a dwell time of 1 s to quantify the number of migrated cells.
The results reported reflect the net observed migratory response of the cells to the ligand and are not based on the definition of unimodal fugetaxins.

Neutrophils = assay: High throughput transmigration assay (Example 9), chemorepulsion; assay type: cell-based, human
Monocyte = assay: Trans-well migration assay (Example 1), net migratory response
[1] = tested on: Eo-HL60 (HL-60 clone 15 differentiated to eosinophil-like phenotype); assay: as above; assay type: cell-based, human; conditions: net observed response
[2] = Neutrophils, mean of three donors at concentration of highest activity, range 0.00125-1.25 μM
[3] = neutrophils, 0.00125 μM, one donor, triplicate, ± SD
[4] = neutrophils, 0.0125 μM, one donor, triplicate, ± SD
[5] = neutrophils, 0.125 μM, one donor, triplicate, ± SD
[6] = neutrophils, 1.25 μM, one donor, triplicate, ± SD
[7] = Monocyte, net observed response

| Molecule | Migratory Response (B-cell) | Migratory Response (Monocyte; [7]) | other results |
| --- | --- | --- | --- |
| COc1cc(CNC(=O)CCCC/C=C/C(C)C)ccc1O [Capsaicin, reference compound] | chemorepulsion | – | – |
| CC[C@H]1OC(=O)[C@H](C)[C@@H](O[C@H]2C[C@@](C)(OC)[C@@H](O)[C@H](C)O2)[C@H](C)[C@@H](O[C@@H]2O[C@H](C)C[C@H](N(C)C)[C@H]2O)[C@](C)(O)C[C@@H](C)C(=O)[C@H](C)[C@@H](O)[C@]1(C)O [Erythromycin, reference compound] | – | – | Repellent Index (Neutrophils; [2]): 4.8; Repellent Index (Neutrophils; [3]): 1.75 ± 0.40; Repellent Index (Neutrophils; [4]): 2.29 ± 1.61; Repellent Index (Neutrophils; [5]): 3.29 ± 1.11; Repellent Index (Neutrophils; [6]): 6.12 ± 2.53 |
| O=c1c(-c2ccc(O)cc2)coc2cc(O)cc(O)c12 [Genistein, reference compound] | chemorepulsion | – | Repellent Index (Neutrophils; [2]): 1.3 |
| CC(C)=CCC[C@]1(C)[C@@H](CC=C(C)C)C[C@@]2(CC=C(C)C)C(=O)[C@]1(C(=O)C(C)C)C(=O)C(CC=C(C)C)=C2O [Hyperforin, reference compound] | – | – | Migratory Response (Monocyte): chemorepulsion |
| O.O.O=c1c(O)c(-c2ccc(O)c(O)c2)oc2cc(O)cc(O)c12 [Quercetin dihydrate, reference compound] | chemorepulsion | – | Migratory Response [1]: chemorepulsion |
| (−)-Epigallocatechin Gallate [EGCG ((−)-Epigallocatechin Gallate), reference compound] | chemorepulsion | – | – |
| Antithrombin III | – | – | Repellent Index (Neutrophils; Neutrophils, mean of three donors at concentration of highest activity, range 0.000573-0.573 μM): 2.2; Repellent Index (Neutrophils; neutrophils, 0.000573 μM, one donor, triplicate, ± SD): 1.08 ± 0.36; Repellent Index (Neutrophils; neutrophils, 0.00573 μM, one donor, triplicate, ± SD): 1.63 ± 0.67; Repellent Index (Neutrophils; neutrophils, 0.0573 μM, one donor, triplicate, ± SD): 3.17 ± 0.98; Repellent Index (Neutrophils; neutrophils, 0.573 μM, one donor, triplicate, ± SD): 5.55 ± 1.71 |
| CXCL2: chemokine | – | – | Repellent Index (Neutrophils; [2]): 1.6 |
| Concanavalin A | chemorepulsion | chemorepulsion | – |
| Eotaxin: chemokine | chemorepulsion | – | – |
| Galectin-7: full-length galectin protein, purchased | chemorepulsion | – | – |
| Lipid A Diphos [reference compound] | – | – | Migratory Response [1]: chemorepulsion |
| MCP-4: chemokine | chemorepulsion | chemorepulsion | – |
| Tropomyosin | – | – | Repellent Index (Neutrophils; [2]): 1.7; Repellent Index (Neutrophils; [3]): 2.57 ± 0.73; Repellent Index (Neutrophils; [4]): 2.26 ± 0.86; Repellent Index (Neutrophils; [5]): 2.23 ± 0.68; Repellent Index (Neutrophils; [6]): 1.67 ± 0.16 |
| B1 | chemorepulsion | chemorepulsion | – |
| B2 | chemorepulsion | chemorepulsion | – |
| B3 | chemorepulsion | chemorepulsion | – |
| B4 | chemorepulsion | chemorepulsion | – |
| B5 | chemorepulsion | chemorepulsion | – |
| B6 | chemorepulsion | – | – |
| B7 | chemorepulsion | – | – |
| B8 | chemorepulsion | – | – |
| B9 | – | chemorepulsion | – |
| B10 | – | – | Migratory Response [1]: chemorepulsion; Repellent Index (Neutrophils; [2]): 1.8 |
| B11 | chemorepulsion | – | – |

Reference: patent publication US9617330B2, “Chemorepulsion of cells” (Celtaxsys, Inc., priority 2006, dated 2017)
